Assay [1] addresses Tolloid-like protein 1 (Homo sapiens, UniProt O43897, I156V/N221S/V284A). The experiment in a line: Inhibition of recombinant human TLL1 I156V/N221S/V284A mutant expressed in CHOE1A cells pre-incubated for 10 mins before promyostatin peptide substrate addition and measured after 60 mins by FRET based assay. It counts as cell-based.
A short description of assay [2]: Reduction in PICP levels in human cardiac fibroblasts incubated for 24 to 48 hrs by ELISA. The format is functional.
Assay [3] has as its target T1, Bone morphogenetic protein 1 (Homo sapiens, UniProt P13497).
T1 sequence (P13497 whole entry): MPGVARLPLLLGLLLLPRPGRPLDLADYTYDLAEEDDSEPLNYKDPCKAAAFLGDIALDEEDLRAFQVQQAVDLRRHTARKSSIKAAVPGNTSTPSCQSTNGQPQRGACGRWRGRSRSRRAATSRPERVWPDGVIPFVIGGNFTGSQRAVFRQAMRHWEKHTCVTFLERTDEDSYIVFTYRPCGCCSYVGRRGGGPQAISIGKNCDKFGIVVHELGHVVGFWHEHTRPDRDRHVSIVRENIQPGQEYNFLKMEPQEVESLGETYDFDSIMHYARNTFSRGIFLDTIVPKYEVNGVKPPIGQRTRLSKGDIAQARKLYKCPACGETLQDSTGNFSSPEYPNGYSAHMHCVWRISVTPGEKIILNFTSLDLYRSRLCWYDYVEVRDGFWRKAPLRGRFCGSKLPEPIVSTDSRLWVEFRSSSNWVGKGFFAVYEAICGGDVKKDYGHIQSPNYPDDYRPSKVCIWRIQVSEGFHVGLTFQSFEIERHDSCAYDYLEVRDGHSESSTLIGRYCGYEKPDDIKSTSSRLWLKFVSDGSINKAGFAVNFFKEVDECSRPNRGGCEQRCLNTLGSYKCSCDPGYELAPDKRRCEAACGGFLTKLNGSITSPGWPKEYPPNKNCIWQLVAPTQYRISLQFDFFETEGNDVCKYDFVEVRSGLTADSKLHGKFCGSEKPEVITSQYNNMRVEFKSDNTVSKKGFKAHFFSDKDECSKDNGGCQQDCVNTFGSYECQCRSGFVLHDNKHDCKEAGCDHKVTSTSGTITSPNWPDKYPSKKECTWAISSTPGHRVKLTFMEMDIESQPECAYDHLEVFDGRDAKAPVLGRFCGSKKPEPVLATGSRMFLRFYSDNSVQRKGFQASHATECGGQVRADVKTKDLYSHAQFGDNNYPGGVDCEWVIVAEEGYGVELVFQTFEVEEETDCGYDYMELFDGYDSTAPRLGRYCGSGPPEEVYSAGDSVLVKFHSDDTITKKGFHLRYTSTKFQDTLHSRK
Description: Inhibition of C-terminal FLAG-6x-His epitope tagged and N-terminal human RAGE signal sequence tagged human BMP1 (23 to 721 amino acids) expressed in CHO-E1A cells pre-incubated for 10 mins before promyostatin peptide substrate addition and measured after 60 mins using 0.5 nM BMP1 by FRET based assay. The format is cell-based.

For assay [4], the target named is T2, Tolloid-like protein 2 (Homo sapiens, UniProt Q9Y6L7).
T2 sequence (Q9Y6L7 whole entry): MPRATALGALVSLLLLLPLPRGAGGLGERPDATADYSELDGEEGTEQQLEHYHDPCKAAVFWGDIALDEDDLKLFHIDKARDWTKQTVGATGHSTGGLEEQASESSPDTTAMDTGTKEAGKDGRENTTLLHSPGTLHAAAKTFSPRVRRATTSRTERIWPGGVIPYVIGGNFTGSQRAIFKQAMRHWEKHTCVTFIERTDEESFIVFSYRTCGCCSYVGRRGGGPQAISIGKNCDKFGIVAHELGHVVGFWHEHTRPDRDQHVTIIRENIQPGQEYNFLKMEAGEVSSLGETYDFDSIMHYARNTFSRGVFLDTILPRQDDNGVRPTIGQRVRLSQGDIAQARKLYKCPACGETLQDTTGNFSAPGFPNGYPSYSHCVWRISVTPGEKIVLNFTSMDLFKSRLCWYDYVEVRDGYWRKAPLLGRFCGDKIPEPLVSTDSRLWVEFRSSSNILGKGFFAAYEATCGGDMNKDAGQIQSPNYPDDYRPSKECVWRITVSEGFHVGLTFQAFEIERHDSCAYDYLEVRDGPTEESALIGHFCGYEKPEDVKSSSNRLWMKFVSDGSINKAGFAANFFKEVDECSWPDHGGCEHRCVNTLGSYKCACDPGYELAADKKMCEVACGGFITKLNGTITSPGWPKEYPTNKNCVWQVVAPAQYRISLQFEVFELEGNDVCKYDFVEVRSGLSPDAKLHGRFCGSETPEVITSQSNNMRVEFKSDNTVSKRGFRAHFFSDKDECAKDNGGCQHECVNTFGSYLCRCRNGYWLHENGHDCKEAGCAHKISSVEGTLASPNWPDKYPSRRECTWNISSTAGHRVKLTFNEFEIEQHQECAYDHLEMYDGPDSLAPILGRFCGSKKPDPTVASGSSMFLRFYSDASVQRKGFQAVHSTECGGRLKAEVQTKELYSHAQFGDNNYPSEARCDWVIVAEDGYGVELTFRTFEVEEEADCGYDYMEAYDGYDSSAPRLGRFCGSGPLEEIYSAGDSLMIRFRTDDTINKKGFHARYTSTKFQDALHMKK
Description: Inhibition of C-terminal Avi-6x-His epitope tagged and N-terminal human RAGE signal sequence tagged recombinant human TLL2 (26 to 1015 amino acids) expressed in CHOE1A cells incubated for 60 mins with promyostatin peptide substrate by FRET based assay. The format is cell-based.

Assay [5] has as its target T1, Bone morphogenetic protein 1. The experiment in a line: Inhibition of C-terminal FLAG-6x-His epitope tagged and N-terminal human RAGE signal sequence tagged human BMP1 (23 to 721 amino acids) expressed in CHO-E1A cells pre-incubated for 10 mins before promyostatin peptide substrate addition and measured after 30 mins using 50 nM BMP1 by FRET based assay. The format is cell-based.

Molecules are shown by their SMILES.

As usually defined, the IC50 is the concentration that gives 50% inhibition.

Tolloid-like protein 1, sequence (O43897 148-1013 I156V/N221S/V284A limits assumed): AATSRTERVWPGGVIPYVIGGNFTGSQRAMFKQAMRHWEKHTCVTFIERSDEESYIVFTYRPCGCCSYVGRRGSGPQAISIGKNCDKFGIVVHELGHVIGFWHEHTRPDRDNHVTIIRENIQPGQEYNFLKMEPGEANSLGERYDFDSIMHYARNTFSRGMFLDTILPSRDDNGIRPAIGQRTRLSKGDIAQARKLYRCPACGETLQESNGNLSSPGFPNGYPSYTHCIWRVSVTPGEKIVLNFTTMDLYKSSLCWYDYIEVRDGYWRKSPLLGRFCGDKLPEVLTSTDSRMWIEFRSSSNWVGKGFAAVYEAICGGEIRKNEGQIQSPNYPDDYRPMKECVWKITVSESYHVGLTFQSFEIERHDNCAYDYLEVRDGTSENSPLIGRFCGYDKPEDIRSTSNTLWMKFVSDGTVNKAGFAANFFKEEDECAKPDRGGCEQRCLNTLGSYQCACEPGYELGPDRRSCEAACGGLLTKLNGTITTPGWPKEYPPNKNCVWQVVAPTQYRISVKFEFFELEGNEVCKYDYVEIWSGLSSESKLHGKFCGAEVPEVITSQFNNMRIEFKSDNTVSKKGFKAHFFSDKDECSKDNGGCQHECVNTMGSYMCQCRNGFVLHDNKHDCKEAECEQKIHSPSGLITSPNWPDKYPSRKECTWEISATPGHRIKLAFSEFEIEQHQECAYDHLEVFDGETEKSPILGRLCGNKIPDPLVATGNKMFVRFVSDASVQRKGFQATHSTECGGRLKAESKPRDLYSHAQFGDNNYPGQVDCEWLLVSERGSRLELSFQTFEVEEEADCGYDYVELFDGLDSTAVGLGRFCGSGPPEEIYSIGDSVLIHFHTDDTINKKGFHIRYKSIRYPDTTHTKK

Turning to `O=CN(O)C[C@@H](CC1CCCC1)C(=O)NCNC(=O)c1cccc(-c2cccc(C(F)(F)F)c2)c1`, the IC50 in assay [1] is less than 0.398 µM; in assay [2] it was less than 20 µM; in assay [3], less than 0.126 µM; in assay [4] it was less than 0.631 µM; in assay [5], less than 0.251 µM.
On to `CCCCC[C@H](CN(O)C=O)C(=O)NCNC(=O)c1cccc(-c2cccc(OC)c2)c1`, for which the IC50 was less than 0.398 µM in assay [1]; less than 20 µM in assay [2]; less than 0.126 µM in assay [3]; less than 0.631 µM in assay [4]; less than 0.251 µM in assay [5].
As for `COc1cccc(-c2cccc(C(=O)NCNC(=O)[C@H](CC3CCCC3)CN(O)C=O)c2)c1`, the IC50 was less than 0.398 µM in assay [1]; less than 20 µM in assay [2]; less than 0.126 µM in assay [3]; less than 0.631 µM in assay [4]; less than 0.251 µM in assay [5].
In the case of `CCOc1cccc(-c2cccc(C(=O)NCNC(=O)[C@H](CC3CCCC3)CN(O)C=O)c2)c1`, the IC50 was less than 0.398 µM in assay [1]; less than 20 µM in assay [2]; less than 0.126 µM in assay [3]; less than 0.631 µM in assay [4]; less than 0.251 µM in assay [5].
`CCCCC[C@H](CN(O)C=O)C(=O)NCNC(=O)c1cccc(-c2ncc(C)o2)c1`: the IC50 was less than 0.398 µM in assay [1]; less than 20 µM in assay [2]; less than 0.126 µM in assay [3]; less than 0.631 µM in assay [4]; less than 0.251 µM in assay [5].
On to `CCCCC[C@H](CN(O)C=O)C(=O)NCNC(=O)c1cccc(-c2cccc(C(C)C)c2)c1`, for which the IC50 in assay [1] was less than 0.398 µM; in assay [2] it was less than 20 µM; in assay [3] it was less than 0.126 µM; in assay [4], less than 0.631 µM; in assay [5], less than 0.251 µM.
For `CCc1cccc(-c2cccc(C(=O)NCNC(=O)[C@H](CC3CCCC3)CN(O)C=O)c2)c1`, the IC50 is less than 0.398 µM in assay [1]; less than 20 µM in assay [2]; less than 0.126 µM in assay [3]; less than 0.631 µM in assay [4]; less than 0.251 µM in assay [5].
Taken in the same sequence, the figures for `CCCCC[C@H](CN(O)C=O)C(=O)NCNC(=O)c1cccc(-c2cc(OC)ccc2OC)c1` were less than 0.398 µM, less than 20 µM, less than 0.126 µM, less than 0.631 µM and less than 0.251 µM.
Taken in the same sequence, the figures for `O=CN(O)C[C@@H](CC1CCCC1)C(=O)NCNC(=O)c1cccc(-c2ccc(C(F)(F)F)cc2)c1` were less than 0.398 µM, less than 20 µM, less than 0.126 µM, less than 0.631 µM and less than 0.251 µM.
On to `CCCCC[C@@H](C(=O)NCNC(=O)c1cccc(-c2cc(OCC)cc(C(=O)N[C@@H](CC(=O)O)C(=O)O)c2)c1)[C@@H](CC)N(O)C=O`, for which the IC50 was less than 0.398 µM in assay [1]; less than 20 µM in assay [2]; less than 0.126 µM in assay [3]; less than 0.631 µM in assay [4]; less than 0.251 µM in assay [5].
Consider `COc1ccccc1-c1cccc(C(=O)NCNC(=O)[C@H](CC2CCCC2)CN(O)C=O)c1`, for which the 50% inhibitory concentration (IC50) was less than 0.398 µM in assay [1]; less than 20 µM in assay [2]; less than 0.126 µM in assay [3]; less than 0.631 µM in assay [4]; less than 0.251 µM in assay [5].
Taken in the same sequence, the figures for `CCCCC[C@H](CN(O)C=O)C(=O)NCNC(=O)c1cccc(-c2ccnc(OC)n2)c1` were less than 0.398 µM, less than 20 µM, less than 0.126 µM, less than 0.631 µM and less than 0.251 µM.
Taken in the same sequence, the figures for `CCCCC[C@@H](C(=O)NCNC(=O)c1cccc(-c2ccc(C(=O)O)cc2C)n1)[C@@H](CC)N(O)C=O` were less than 0.398 µM, less than 20 µM, less than 0.126 µM, less than 0.631 µM and less than 0.251 µM.
As to `CCCCC[C@H](CN(O)C=O)C(=O)NCNC(=O)c1cccc(-c2cnc(C)o2)c1`, the IC50 in assay [1] is less than 0.398 µM; in assay [2], less than 20 µM; in assay [3], less than 0.126 µM; in assay [4] it was less than 0.631 µM; in assay [5], less than 0.251 µM.
Turning to `CCCCC[C@H](CN(O)C=O)C(=O)NCNC(=O)c1cccc(-c2nnn[nH]2)c1`, the half-inhibitory concentration (IC50) in assay [1] is less than 0.398 µM; in assay [2] it was less than 20 µM; in assay [3], less than 0.126 µM; in assay [4] it was less than 0.631 µM; in assay [5], less than 0.251 µM.
With `O=CN(O)C[C@@H](CC1CCCC1)C(=O)NCNC(=O)c1cccc(-c2ccccc2)c1`, the IC50 was less than 0.398 µM in assay [1]; less than 20 µM in assay [2]; less than 0.126 µM in assay [3]; less than 0.631 µM in assay [4]; less than 0.251 µM in assay [5].
The matching figures for `O=CN(O)C[C@@H](CC1CCCC1)C(=O)NCNC(=O)c1cccc(-c2cccc(OC(F)(F)F)c2)c1`: less than 0.398 µM, less than 20 µM, less than 0.126 µM, less than 0.631 µM and less than 0.251 µM.
On to `CCCCC[C@@H](C(=O)NCNC(=O)c1cccc(-c2cc(OCC)cc(C(=O)O)c2)c1)[C@@H](CC)N(O)C=O`, for which the IC50 in assay [1] was less than 0.398 µM; in assay [2], less than 20 µM; in assay [3], less than 0.126 µM; in assay [4], less than 0.631 µM; in assay [5] it was less than 0.251 µM.
In the case of `O=CN(O)C[C@@H](CC1CCCC1)C(=O)NCNC(=O)c1cccc(-c2cccc(O)c2)c1`, the IC50 was less than 0.398 µM in assay [1]; less than 20 µM in assay [2]; less than 0.126 µM in assay [3]; less than 0.631 µM in assay [4]; less than 0.251 µM in assay [5].
The matching figures for `N#Cc1cccc(-c2cccc(C(=O)NCNC(=O)[C@H](CC3CCCC3)CN(O)C=O)c2)c1`: less than 0.398 µM, less than 20 µM, less than 0.126 µM, less than 0.631 µM and less than 0.251 µM.
The matching figures for `O=CN(O)C[C@@H](CCc1ccccc1)C(=O)NCNC(=O)c1cccc(-c2cccc(B(O)O)c2)c1`: less than 0.398 µM, less than 20 µM, less than 0.126 µM, less than 0.631 µM and less than 0.251 µM.
For the compound `O=CN(O)C[C@@H](CC1CCCC1)C(=O)NCNC(=O)c1cccc(Oc2ccccc2)c1`, the IC50 was less than 0.398 µM in assay [1]; less than 20 µM in assay [2]; less than 0.126 µM in assay [3]; less than 0.631 µM in assay [4]; less than 0.251 µM in assay [5].
